Laboratory results reported in patent US11033604B2, “Reagents and methods for treating bacterial infection” (priority 2018, dated 2021).
Non-standard residues stand in square brackets, D forms with d. No end group written: not given here.

Legend:
[1] = target: T1, FapC (Pseudomonas aeruginosa, UniProt Q9I2F0); assay: FapC in vitro ThT aggregation assay; format: biochemical, P. aeruginosa; conditions: 0.2 mg/mL FapC, 37° C.
T1 sequence (Q9I2F0 25-340): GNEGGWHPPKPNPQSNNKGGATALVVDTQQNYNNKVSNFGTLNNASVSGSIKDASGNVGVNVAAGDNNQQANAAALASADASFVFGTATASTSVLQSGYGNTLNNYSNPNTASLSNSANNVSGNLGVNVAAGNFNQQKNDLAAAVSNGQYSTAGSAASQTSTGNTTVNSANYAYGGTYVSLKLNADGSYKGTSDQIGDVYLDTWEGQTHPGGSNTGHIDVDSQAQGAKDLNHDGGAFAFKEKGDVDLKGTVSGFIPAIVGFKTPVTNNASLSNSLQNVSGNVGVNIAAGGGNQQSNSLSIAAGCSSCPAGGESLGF
Experimental: FIG. 15. Action of synthetic α-sheet peptides in the P. aeruginosa system. […] Error bars indicate standard deviation of the mean of at least three replicates. Significance values are p<0.05: *, p<0.01: **, p<0.001: ***.
Samples are aliquoted into 96 well plates and incubated in a plate reader at 37° C. with shaking every 5 min. As previously, the fluorescence of ThT monitors protein fibril formation in real time. Synthetic α-sheet peptides may also be added to the reaction to determine whether they inhibit FapC fibril formation, as in the case of AP90 (FIG. 15A).

[2] = test system: S. mutans biofilm; assay: TEM of S. mutans biofilm; format: cell-based, Streptococcus mutans; conditions: 100 μM (FIG. 16)
Experimental: FIG. 16. Synthetic α-sheet peptides as a novel anti-biofilm agent for the dental pathogen, S. mutans. A) ThT fluorescence of S. mutans biofilms decreases upon addition of synthetic α-sheet peptides AP193, AP407, and AP90. […] D) synthetic α-sheet peptides added to S. mutans grown on hydroxyapatite ceramic particles led to significant decreases in ThT fluorescence.
The phenotypic effects of synthetic α-sheet peptides were determined using TEM.

[3] = test system: UTI89 WT biofilms; assay: Biofilm adherence to glass slides after washing; format: cell-based, E. coli; conditions: after gentle washing
Description: (§1) FIG. 12. […] Error bars indicate standard deviation of the mean of at least three replicates. Significance values are p<0.05: *, p<0.01: **, p<0.001: ***.
(§2) UTI89 biofilms were also cultivated in the presence of an unstructured peptide, P1, which retains a mixture of L- and D-amino acids but lacks the α-sheet secondary structure of AP193.

[4] = test system: GERB 337; assay: ThT assay of EM amyloid in clinical isolate biofilms; format: cell-based, E. coli; conditions: antibiotic resistant clinical isolate GERB 337
Description: (§3) FIG. 12. Synthetic α-sheet peptides inhibit amyloid formation in uropathogenic E. coli biofilms. […] E) AP193 is also effective in reducing the EM amyloid content of two clinical isolate strains, GERB 319 and GERB 337. Error bars indicate standard deviation of the mean of at least three replicates. Significance values are p<0.05: *, p<0.01: **, p<0.001: ***.
(§4) To extend the applicability of synthetic α-sheet peptides beyond the well-characterized UTI89 system, we obtained several E. coli isolates from pediatric patients who presented with urinary tract infections.

[5] = test system: GERB 319; assay: as above; format: cell-based, E. coli; conditions: antibiotic resistant clinical isolate GERB 319
Description: as §3, §4

[6] = target: CsgA (Escherichia coli, UniProt P28307); conditions: dimeric AP193, 14:1 molar ratio (CsgA:AP193), 150 h, 25° C.
Chain of CsgA (P28307 21-151): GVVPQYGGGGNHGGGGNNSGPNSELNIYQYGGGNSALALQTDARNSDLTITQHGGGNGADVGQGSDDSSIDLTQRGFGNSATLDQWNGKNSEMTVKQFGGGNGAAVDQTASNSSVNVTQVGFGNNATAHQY
Experimental: A) CsgA aggregation monitored by ThT fluorescence. […] Error bars represent one standard deviation from the mean of three replicates.
For inhibition assays with CsgA, purified, recombinant CsgA was desalted from a stock solution containing 8 M Gnd HCl into 50 mM potassium phosphate buffer (KPi, pH 6.2) and diluted to a final concentration of 0.2 mg/m L. Samples were aliquoted into 96 well plates and incubated quiescently at 25° C. Plates were removed for periodic measurements in a plate reader, where the fluorescence of Thioflavin T (ThT) was used to monitor protein fibril formation in real time. ThT fluoresces upon binding p-sheet structure and serves as a proxy for amyloid fibril content.
In some samples, the dimeric α-sheet peptide AP193 was also added to the mixture at a molar ratio of 14:1 (CsgA:AP193). After 150 h incubation, the extent of amyloid formation in the two samples was measured by ThT fluorescence (FIG. 11C).

[7] = test system: E. coli UTI89 WT biofilms; assay: Antibiotic susceptibility test with gentamicin (live/dead ratio and CFU counts); format: cell-based; conditions: 150 μg/mL gentamicin, 6 h, vs peptide-free controls
Experimental: FIG. 13. Synthetic α-sheet peptides increase antibiotic susceptibility of uropathogenic E. coli biofilms, as measured by A) live/dead fluorescence ratio and (B) CFU counts. Error bars indicate standard deviation of the mean of at least three replicates.
To test this hypothesis, biofilms of E. coli UTI89 WT were grown in YESCA broth+4% DMSO in 48 well plates at 26° C. Media was removed 6 h prior to the end of the 48 h incubation period and replaced either with fresh media alone or fresh media containing 150 μg/mL gentamicin (Gm), an aminoglycoside antibiotic. After the 6 h incubation, biofilms were harvested by aspirating the planktonic cells, rinsing the biofilm once with PBS, and then resuspending the biofilm in PBS. Biofilm suspensions were homogenized with a probe sonicator and subjected to one of two processing protocols. In the first assay, the bacterial density of each biofilm suspension was normalized by absorbance at 670 nm and then bacteria were stained with Live/Dead (Syto9/propidum iodide) to obtain a fluorescent readout of viability. In the second assay, biofilm suspensions were serially diluted in sterile PBS and then plated on agar plates to obtain colony-forming unit (CFU) counts.

[8] = test system: csgA expression; assay: RT-qPCR of csgA expression in biofilms; format: cell-based, E. coli; conditions: biofilms grown with peptide vs peptide-free controls
Description: as §2

[9] = test system: E. coli UTI89; assay: Bacterial growth and biofilm versus planktonic proportion; format: cell-based; conditions: UTI89 biofilm cultures
Description: as §1, §2

In the case of “RGEmNlSwMNEYSGWtMnLkMGR (RGEMNLSWMNEYSGWTMNLKMGR; not fully specified (residues 4, 6, 8, 16, 18, 20); printed as RGEmNlSwMNEYSGWtMnLkMGR) [AP90]”, the “FapC fibril formation (ThT)” value [1] is reported as “inhibits fibril formation” and the “Fibrillar structures in extracellular material by TEM” value [2] is reported as “such structures were not observed”.
“RGEmNyFwMNEYYGWtMnCkMGR (RGE[dM]N[dY]F[dW]MNEYYGW[dT]M[dN]C[dK]MGR) [AP193, hydrophobic AP90 derivative, variant to support different chemical coupling reactions]” was tested, and the “Adherence of biofilm to glass slides” value [3] was “far less adherent to glass slides”, the “ThT fluorescence of biofilm” value [4] was “significant decrease in ThT fluorescence” and the “ThT fluorescence of biofilm” value [5] was “significant decrease in ThT fluorescence”. For the same substance, the “CsgA fibril formation (endpoint ThT fluorescence)” value [6] was “significantly reduced”, the “Efficacy of gentamicin (Gm) against biofilms (live/dead ratio, CFU counts)” value [7] was “improved the efficacy of Gm” and the “csgA expression (RT-qPCR)” value [8] was “did not reveal any significant changes in csgA expression”. The “Bacterial killing / growth inhibition” value [9] was “does not kill bacteria or inhibit their growth”.
